“And” between values parts separate entries of the source, which are not always exact repeats. Identical values can stand only once.
Columns and labels:
HsAPT2 [1] = target: T1, HsAPT2 (Homo sapiens, UniProt O95372); assay: 4-NPO esterase activity assay, recombinant HsAPT2; assay type: biochemical; design: made in house; host or cells: E. coli BL21(DE3)pLysS
From the text: (§1) We recently performed a phenotypic screen to identify small-molecule modulators of host cell invasion by the apicomplexan parasite T. gondii. The small-molecules in this directed screen were expected to covalently modify protein targets in an activity-dependent manner. Unexpectedly, this screen not only identified inhibitors of parasite invasion, but also compounds that enhanced host cell invasion. Enhancer compounds were all structurally similar substituted chloroisocoumarins. Using an alkynylated version of the lead enhancer compound (JCP174), we identified the phenotypically relevant target of the enhancer phenotype as the previously uncharacterized thioesterase TgPPT1 [12]. TgPPT1 is the orthologue of the human depalmitoylase HsAPT1, sharing 33% identity by BLAST analysis. […] Therefore, we screened a focused library of substituted chloroisocoumarins to identify compounds that inhibited HsAPT1 and HsAPT2 activity. […] To measure the enzymatic activity of recombinant HsAPT1 and HsAPT2, we used the previously reported substrate, 4-nitrophenyl octanoate (4-NPO), in which enzymatic cleavage of the ester linkage can be measured by UV/Vis spectroscopy upon release of 4-nitrophenolate (Fig 1A). Using this activity readout, we performed our screen with recombinant HsAPT1 and HsAPT2 using a focused library of 100 substituted chloroisocoumarins (Fig 1B). Compounds that produced >50% inhibition of either HsAPT1 or HsAPT2 activity relative to the DMSO control at 10 μM were then re-screened across a range of concentrations to determine in vitro IC50 values (Fig 1C and 1D). Compounds with IC50 values <10 μM for both HsAPT1 and HsAPT2 were scored as hits. According to these criteria, our screen achieved a hit rate of 7% (Table 1). […] We next tested the potency of JCP174 for both enzymes with increasing preincubation times from 30 minutes to 6 hours. The potency of JCP174 increased with longer pre-incubation times for both targets, indicating an irreversible covalent mechanism (S1 Table). […] (S1 Table).
(§2) The 4-nitropenhyl octanoate (4-NPO) activity assay was modified from Dekker et al.. Briefly, 50 μL 20 mM HEPES, 150 mM NaCl, 0.01% v/v Triton-X 100, pH 7.4 buffer with the indicated concentrations of inhibitor or buffer control was added to 96-well plates. To each well, 30 μL of recombinantly expressed enzyme diluted to 1 μM in 20 mM HEPES, 150 mM NaCl, 0.01% v/v Triton-X 100, pH 7.4 buffer was added. The inhibitor and enzyme reaction was incubated at 37°C for 30 minutes before 20 μL of 4-NPO (3.0 mM) was added to the reaction in 20 mM HEPES, 150 mM NaCl, 0.25% v/v Triton-X 100, pH 7.4 buffer. The reaction progress was measured using a Cytation 3 plate reader at 401 nm at 1-minute intervals for 40 minutes.

HsAPT1 [2] = target: T2, HsAPT1 (Homo sapiens, UniProt O75608); assay: 4-NPO esterase activity assay, recombinant HsAPT1; assay type: biochemical; design: made in house; host or cells: E. coli BL21(DE3)pLysS
T2 sequence (O75608 whole entry): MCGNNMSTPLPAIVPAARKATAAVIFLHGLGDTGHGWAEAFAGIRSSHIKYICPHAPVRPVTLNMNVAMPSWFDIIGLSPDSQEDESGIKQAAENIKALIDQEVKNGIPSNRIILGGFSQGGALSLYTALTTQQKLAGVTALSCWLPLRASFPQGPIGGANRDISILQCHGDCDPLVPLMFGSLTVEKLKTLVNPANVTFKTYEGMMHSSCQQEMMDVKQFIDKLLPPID
From the text: as §1, §2

TgPPT1 [3] = assay type: cell-based, Toxoplasma gondii
TgPPT1 [4] = assay: In-gel labeling of recombinant TgPPT1 with JCP174-BT; assay type: binding, Toxoplasma gondii; details: 1 μM probe
[5] = tested on: HsAPT1 and HsAPT2 in intact U-2 OS cells; assay: Intact mammalian cell labeling, in-gel fluorescence; assay type: cell-based, human
HsAPT2 [6] = target: T1, HsAPT2; assay: FP-rhodamine ABP competition labeling, U-2 OS (HsAPT2 band); assay type: cell-based; details: intact U-2 OS cells pretreated 1 hour, washed, lysates labeled with FP-rho
HsAPT1 [7] = target: T2, HsAPT1; assay: FP-rhodamine ABP competition labeling, U-2 OS (HsAPT1 band); assay type: cell-based; details: intact U-2 OS cells pretreated 1 hour, washed, lysates labeled with FP-rho
[8] = rHsAPT2, 4-NPO substrate, 30 minutes preincubation at 37°C
[9] = rHsAPT1, 4-NPO substrate, 30 minutes preincubation at 37°C

T1 sequence (O95372 whole entry): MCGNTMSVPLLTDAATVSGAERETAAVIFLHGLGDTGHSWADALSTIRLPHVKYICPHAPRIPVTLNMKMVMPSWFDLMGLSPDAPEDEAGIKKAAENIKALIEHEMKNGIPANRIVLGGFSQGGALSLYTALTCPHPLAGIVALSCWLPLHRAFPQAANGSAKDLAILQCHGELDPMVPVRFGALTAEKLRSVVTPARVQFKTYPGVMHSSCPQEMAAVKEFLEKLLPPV

SMILES	IC50 (HsAPT2 [1]; [8])	IC50 (HsAPT1 [2]; [9])	further results
O=c1oc(Cl)c(Cl)c2ccccc12 [DCI, dichloroisocoumarin, reference compound]	2700 nM	1700 nM	–
COc1ccc(-c2ccc3n2[B-](F)(F)[N+]2=C(C)C(CCC(=O)NCCCn4cc(CCOc5oc(=O)c6cc(N)ccc6c5Cl)nn4)=C(C)C2=C3)cc1 [JCP174-BODIPY TMR]	1800 nM	3000 nM	Labeling of TgPPT1 in intact T. gondii tachyzoites (TgPPT1 [3]): strong labeling of TgPPT1 in intact cells; Covalent labeling of active site mutant TgPPT1 S128A (TgPPT1 [4]; recombinant TgPPT1 S128A): did not label the active site mutant; Covalent labeling of wild-type TgPPT1 (TgPPT1 [4]; recombinant TgPPT1 WT): covalently modified; Labeling of HsAPT1 and HsAPT2 in intact U-2 OS cells [5]: labeled APT1 and APT2 in intact cells
C#CCCOc1oc(=O)c2cc(N)ccc2c1Cl [JCP174-alk, 3-(3-Butynoxy)-4-chloro-7-amino-isocoumarin]	498 nM and 500 nM	925 nM and 930 nM	–
CCCCCCCCCC[C@@H]1C(=O)O[C@H]1CCc1ccc(OC)c(OC)c1 [Palmostatin B, palmostatin B, reference compound]	320 nM	310 nM	Competition for FP-rho labeling of HsAPT2 (HsAPT2 [6]): competed for the same two species; IC50 (HsAPT2 [1]; preincubation time 2 hr): 700 nM; IC50 (HsAPT2 [1]; preincubation time 6 hr): 1600 nM; Competition for FP-rho labeling of HsAPT1 (HsAPT1 [7]): competed for the same two species; IC50 (HsAPT1 [2]; preincubation time 2 hr): 2500 nM; IC50 (HsAPT1 [2]; preincubation time 6 hr): 6800 nM

Second part, led by results:

IC50 (HsAPT2 [1]; [8])	IC50 (HsAPT1 [2]; [9])	SMILES	further results
2900 nM	1800 nM	CCOc1oc(=O)c2cc(NC(=S)Nc3ccccc3)ccc2c1Cl [JCP154]	–
5200 nM	1500 nM	O=C(O)c1cccc(NC(=S)Nc2ccc3c(Cl)c(OCCBr)oc(=O)c3c2)c1 [JCP342]	–
9100 nM	1400 nM	O=c1oc(OCCBr)c(Cl)c2ccc(NC(=S)Nc3ccccc3)cc12 [JCP343]	–
8500 nM	7100 nM	O=C(O)c1ccc(NC(=S)Nc2ccc3c(Cl)c(OCCBr)oc(=O)c3c2)cc1 [JCP345]	–
950 nM	1200 nM	CC(CBr)Oc1oc(=O)c2cc(N)ccc2c1Cl (stereo not shown) [JCP362]	–

— article PMC5783350, “Development of an activity-based probe for acyl-protein thioesterases” (PLoS ONE, 2018)
